The source of these data is US4824843A, “Substituted amide inhibitors of cholesterol absorption” (Warner-Lambert Company, priority 1987, dated 1989).

Structures can show the parent of a compound that is named as a salt.

The assay has as its target T1, acyl-CoA: cholesterol acyltransferase (ACAT) (Oryctolagus cuniculus, UniProt G1SFD9).
T1 construct: rabbit intestinal microsomal fraction; from tissue; host or cells: rabbit intestinal microsomal fraction
T1 sequence (G1SFD9 1-524): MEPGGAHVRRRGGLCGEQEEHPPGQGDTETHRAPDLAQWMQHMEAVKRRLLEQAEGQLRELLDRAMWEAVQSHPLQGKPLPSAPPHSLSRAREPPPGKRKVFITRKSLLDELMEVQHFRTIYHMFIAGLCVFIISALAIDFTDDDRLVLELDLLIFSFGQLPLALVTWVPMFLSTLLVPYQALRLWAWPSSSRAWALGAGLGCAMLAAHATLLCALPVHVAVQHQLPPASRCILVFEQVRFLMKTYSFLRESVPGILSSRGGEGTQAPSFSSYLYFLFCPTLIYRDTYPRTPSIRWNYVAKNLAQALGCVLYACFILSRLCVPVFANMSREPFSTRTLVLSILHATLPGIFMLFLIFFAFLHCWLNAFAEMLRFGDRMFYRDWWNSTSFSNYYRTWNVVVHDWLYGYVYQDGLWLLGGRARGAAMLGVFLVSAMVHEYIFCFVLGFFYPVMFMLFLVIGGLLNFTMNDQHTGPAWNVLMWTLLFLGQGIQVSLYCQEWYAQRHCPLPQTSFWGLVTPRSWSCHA
Description: In vitro inhibition of cholesterol esterification by ACAT (cholesteryl oleate formation), rabbit intestinal microsomal fraction. The format is biochemical. The note with it: endogenous cholesterol of rabbit intestinal microsomal fraction and exogenous 14C-oleoyl-CoA; read-out: IC50 (concentration of test compound required to inhibit cholesteryl oleate formation to 50% of control). As for the experimental part:
The compounds of the present invention were tested for their ability to inhibit the esterification of cholesterol by the enzyme acyl-CoA: cholesterol acyltransferase (ACAT). The data in the table below is expressed as IC50 values, i.e. the concentration of test compound required to inhibit cholesteryl oleate formation to 50% of control.
The in vitro test employed is more fully described in Field, F. J. and Salome, R. G., Biochemica et Biophysica Acta, 712, pp. 557-570 (1982). The assay evaluates the ability of a test compound to inhibit the esterification of cholesterol using endogenous cholesterol of a rabbit intestinal microsomal fraction and exogenous ^14 C-oleoyl-CoA as reactants.
Take `Cc1ccc(C)c(OCCCC(C)(C)C(=O)Nc2cccc(C3=NC(C)(C)CO3)c2C)c1` [Example 1, N-[3-(4,5-Dihydro-4,4-dimethyl-2-oxazolyl)-2-methylphenyl]-5-(2,5-dimethylphenoxy)-2,2-dimethylpentanamide]: the IC50 stood at 24 µM.

In the case of `Cc1ccc(C)c(OCCCC(C)(C)C(=O)Nc2cccc(C3=NC(C)(C)CO3)c2)c1` [Example 1a, N-[3-(4,5-Dihydro-4,4-dimethyl-2-oxazolyl)phenyl]-5-(2,5-dimethylphenoxy)-2,2-dimethylpentanamide], the IC50 turned out to be 22 µM.

Turning to `Cc1ccc(C)c(OCCCC(C)(C)C(=O)Nc2cc(C3=NC(C)(C)CO3)ccc2C)c1` [Example 1b, N-[5-(4,5-Dihydro-4,4-dimethyl-2-oxazolyl)-2-methylphenyl]-5-(2,5-dimethylphenoxy)-2,2-dimethylpentanamide], the IC50 worked out at 5.5 µM.

For the compound `Cc1ccc(C)c(OCCCC(C)(C)C(=O)Nc2cccc(C3=NCCO3)c2C)c1` [Example 1c, N-[3-(4,5-Dihydro-2-oxazolyl)-2-methylphenyl]-5-(2,5-dimethylphenoxy)-2,2-dimethylpentanamide], the IC50 came to 10 µM.

As for `Cc1ccc(C)c(OCCCC(C)(C)C(=O)Nc2ccc(C)c(CC3=NC(C)(C)CO3)c2)c1` [Example 1d, N-[3-[(4,5-Dihydro-4,4-dimethyl-2-oxazolyl)methyl]-4-methylphenyl]-5-(2,5-dimethylphenoxy)-2,2-dimethylpentanamide], the IC50 stood at 1 µM.

For `COc1ccc(NC(=O)C(C)(C)CCCOc2cc(C)ccc2C)cc1CCC1=NC(C)(C)CO1` [Example 2, N-[3-[2-(4,5-Dihydro-4,4-dimethyl-2-oxazolyl)ethyl]-4-methoxyphenyl]-5-(2,5-dimethylphenoxy)-2,2-dimethylpentanamide], the IC50 was 3.7 µM.

As for `Cc1ccc(C)c(OCCCC(C)(C)C(=O)Nc2cccc(C=CC3=NC(C)(C)CO3)c2)c1` [Example 2a, N-[3-[2-(4,5-Dihydro-4,4-dimethyl-2-oxazolyl)ethenyl]phenyl]-5-(2,5-dimethylphenoxy)-2,2-dimethylpentanamide], the IC50 came to 9.4 µM.

For `COc1ccc(/C=C/C2=NC(C)(C)CO2)cc1NC(=O)C(C)(C)CCCOc1cc(C)ccc1C` [Example 2b, (E)-N-[5-[2-(4,5-Dihydro-4,4-dimethyl-2-oxazolyl)ethenyl]-2-methoxyphenyl]-5-(2,5-dimethylphenoxy)-2,2-dimethylpentanamide], the IC50 is 8 µM.

With `COc1ccc(CC2=NC(C)(C)CO2)cc1NC(=O)C(C)(C)CCCOc1cc(C)ccc1C` [Example 3, N-[5-[(4,5-Dihydro-4,4-dimethyl-2-oxazolyl)methyl]-2-methoxyphenyl]-5-(2,5-dimethylphenoxy)-2,2-dimethylpentanamide], the IC50 came to 5.5 µM.

Turning to `Cc1ccc(C)c(OCCCC(C)(C)C(=O)Nc2cccc(OCC3=NC(C)(C)CO3)c2)c1` [Example 3a, N-[3-[(4,5-Dihydro-4,4-dimethyl-2-oxazolyl)methoxy]phenyl]-5-(2,5-dimethylphenoxy)-2,2-dimethylpentanamide], the IC50 was 9.2 µM.

In the case of `Cc1ccc(C)c(OCCCC(C)(C)C(=O)Nc2cc(CC3=NC(C)(C)CO3)ccc2C)c1` [Example 3b, N-[5-[(4,5-Dihydro-4,4-dimethyl-2-oxazolyl)methyl]-2-methylphenyl]-5-(2,5-dimethylphenoxy)-2,2-dimethylpentanamide], the IC50 was determined as 0.8 µM.

Consider `Cc1ccc(C)c(OCCCC(C)(C)C(=O)Nc2cccc(C3=NCCCO3)c2)c1` [Example 4, N-[3-(5,6-Dihydro-4H-1,3-oxazin-2-yl)phenyl]-5-(2,5-dimethylphenoxy)-2,2-dimethylpentanamide], for which the IC50 is 20 µM.

On to `COc1ccc(C2=NC(C)(C)CO2)cc1NC(=O)C(C)(C)CCCOc1cc(C)ccc1C` [Example 4b, N-[5-(4,5-Dihydro-4,4-dimethyl-2-oxazolyl)-2-methoxyphenyl]-5-(2,5-dimethylphenoxy)-2,2-dimethylpentanamide], for which the IC50 stood at 9 µM.

In the case of `COc1ccc(NC(=O)C(C)(C)CCCOc2cc(C)ccc2C)cc1C1=NC(C)(C)CO1` [Example 4d, N-[3-(4,5-Dihydro-4,4-dimethyl-2-oxazolyl)-4-methoxyphenyl]-5-(2,5-dimethylphenoxy)-2,2-dimethylpentanamide], the IC50 stood at 19 µM.

On to `COc1cc(OC)c(C2=NC(C)(C)CO2)cc1NC(=O)C(C)(C)CCCOc1cc(C)ccc1C` [Example 4e, N-[5-(4,5-Dihydro-4,4-dimethyl-2-oxazolyl)-2,4-dimethoxyphenyl]-5-(2,5-dimethylphenoxy)-2,2-dimethylpentanamide], for which the IC50 came out at 9 µM.

In the case of `COc1ccc(C2=NCCCO2)cc1NC(=O)C(C)(C)CCCOc1cc(C)ccc1C` [Example 4f, N-[5-(5,6-Dihydro-4H-1,3-oxazin-2-yl)-2-methoxyphenyl]-5-(2,5-dimethylphenoxy)-2,2-dimethylpentanamide], the IC50 was 18 µM.

Turning to `COC(=N)c1cccc(NC(=O)C(C)(C)CCCOc2cc(C)ccc2C)c1` [Example 4g, 5-(2,5-Dimethylphenoxy)-N-[3-(iminomethoxymethyl)phenyl]-2,2-dimethylpentanamide monohydrochloride], the IC50 amounted to 13 µM.

As for `Cc1ccc(C)c(OCCCC(C)(C)C(=O)Nc2cccc(-c3ncco3)c2)c1` [Example 4h, 5-(2,5-Dimethylphenoxy)-2,2-dimethyl-N-[3-(2-oxazolyl)phenyl]-pentanamide], the IC50 is 23 µM.

As for `Cc1ccc(C)c(OCCCC(C)(C)C(=O)Nc2cccc(-c3nnc(C)o3)c2)c1` [Example 5, 5-(2,5-dimethylphenoxy)-2,2-dimethyl-N-[3-(5-methyl-1,3,4-oxadiazol-2-yl)phenyl]pentanamide], the IC50 amounted to 21 µM.
